According to patent publication US8999967B2, “Tricyclic fused ring inhibitors of hepatitis C” (Presidio Pharmaceuticals, Inc., priority 2010, dated 2015):

System: HCV 1b_Huh-Luc/Neo-ET cell line (genotype 1b replicon in Huh 7 cells)
Experiment: HCV replicon assay (luciferase readout)
Assay type: cell-based
Conditions: Hepatitis C virus, HCV 1b replicon in Huh 7 cells, 72 h incubation, EC50 range class, read-out: Inhibition of HCV genotype 1b
Protocol: Biological activity of the compounds of the invention was determined using an HCV replicon assay. The HCV 1b_Huh-Luc/Neo-ET cell line persistently expressing a bicistronic genotype 1b replicon in Huh 7 cells was obtained from ReBLikon GMBH. This cell line was used to test compound inhibition using luciferase enzyme activity readout as a measurement of compound inhibition of replicon levels.
On Day 1 (the day after plating cells), each compound is added in triplicate to the cells. Plates are incubated for 72 h prior to determining luciferase levels. Enzyme activity was measured using a Bright-Glo Kit (cat. number E2620) manufactured by Promega Corporation. The following equation was used to generate a percent control value for each compound. % Control=(Compound Luciferase Level/Control Luciferase Level)*100
The EC50 value was determined using GraphPad Prism and the following equation: Y=Bottom asymptote+(Top asymptote-Bottom asymptote)/(1+10^((Log EC50−X)*HillSlope))
EC50 values of compounds are determined several times in the replicon assay to generate average EC50 values. […]

| SMILES | EC50 [nM] |
| --- | --- |
| COC(=O)N[C@H](C(=O)N1CCC[C@H]1c1ncc(-c2ccc3c(c2)Cc2cc(Cl)c(-c4cnc([C@@H]5CCCN5C(=O)[C@@H](NC(=O)OC)C(C)C)[nH]4)cc2O3)[nH]1)C(C)C [Compound 61] | < 1 |
| COC(=O)N[C@H](C(=O)N1CCC[C@H]1c1ncc(-c2ccc3c(c2)Cc2cc(Cl)c(-c4cnc([C@@H]5CCCN5C(=O)[C@@H](NC(=O)OC)[C@@H](C)OC)[nH]4)cc2O3)[nH]1)[C@@H](C)OC [Compound 62] | < 1 |
| CC[C@H](C)[C@H](NC(=O)OC)C(=O)N1CCC[C@H]1c1ncc(-c2ccc3c(c2)Cc2cc(Cl)c(-c4cnc([C@@H]5CCCN5C(=O)[C@@H](NC(=O)OC)[C@@H](C)CC)[nH]4)cc2O3)[nH]1 [Compound 63] | < 1 |
| COC(=O)N[C@H](C(=O)N1CCOC[C@H]1c1ncc(-c2ccc3c(c2)Oc2ccc(-c4cnc([C@@H]5COCCN5C(=O)[C@@H](NC(=O)OC)C(C)C)[nH]4)cc2O3)[nH]1)C(C)C [Compound 64] | < 1 |
| COC(=O)N[C@@H](C(=O)N1CCOC[C@H]1c1ncc(-c2ccc3c(c2)Oc2ccc(-c4cnc([C@@H]5COCCN5C(=O)[C@H](NC(=O)OC)c5ccccc5)[nH]4)cc2O3)[nH]1)c1ccccc1 [Compound 65] | < 1 |
| COC(=O)N[C@H](C(=O)N1CSC[C@H]1c1ncc(-c2ccc3c(c2)Oc2ccc(-c4cnc([C@@H]5CSCN5C(=O)[C@@H](NC(=O)OC)C5CCCC5)[nH]4)cc2O3)[nH]1)C1CCCC1 [Compound 66] | < 1 |
| CC[C@H](C)[C@H](NC(=O)OC)C(=O)N1CSC[C@H]1c1ncc(-c2ccc3c(c2)Oc2ccc(-c4cnc([C@@H]5CSCN5C(=O)[C@@H](NC(=O)OC)[C@@H](C)CC)[nH]4)cc2O3)[nH]1 [Compound 67] | < 1 |
| CC[C@H](C)[C@H](NC(=O)OC)C(=O)N1CCC[C@H]1c1ncc(-c2ccc3c(c2)Oc2ccc(-c4cnc([C@@H]5CCCN5C(=O)[C@@H](NC(=O)OC)[C@@H](C)CC)[nH]4)cc2C3(C)C)[nH]1 [Compound 70] | < 1 |
| COC(=O)N[C@H](C(=O)N1CCC[C@H]1c1ncc(-c2ccc3c(c2)Oc2ccc(-c4cnc([C@@H]5CCCN5C(=O)[C@@H](NC(=O)OC)[C@@H](C)OC)[nH]4)cc2C3(C)C)[nH]1)[C@@H](C)OC [Compound 71] | < 1 |
| COC(=O)N[C@H](C(=O)N1CCC[C@H]1c1ncc(-c2ccc3c(c2)Oc2ccc(-c4cnc([C@@H]5CCCN5C(=O)[C@@H](NC(=O)OC)C5CCOCC5)[nH]4)cc2C3(C)C)[nH]1)C1CCOCC1 [Compound 75] | < 1 |
| CC[C@H](C)[C@H](NC(=O)OC)C(=O)N1CCC[C@H]1c1ncc(-c2ccc3c(c2)Oc2ccc(-c4cnc([C@@H]5CCCN5C(=O)[C@@H](NC(=O)OC)[C@@H](C)CC)[nH]4)cc2C32CC2)[nH]1 [Compound 79] | < 1 |
| COC(=O)N[C@H](C(=O)N1CCC[C@H]1c1ncc(-c2ccc3c(=O)c4cc(-c5cnc([C@@H]6CSCN6C(=O)[C@@H](NC(=O)OC)[C@@H](C)OC)[nH]5)ccc4oc3c2)[nH]1)[C@@H](C)OC [Compound 120] | < 1 |
| COC(=O)N[C@@H](C(=O)N1CCC[C@H]1c1ncc(-c2ccc3c(=O)c4cc(-c5cnc([C@@H]6CSCN6C(=O)[C@H](NC(=O)OC)c6ccccc6)[nH]5)ccc4oc3c2)[nH]1)c1ccccc1 [Compound 121] | < 1 |
| COC(=O)N[C@H](C(=O)N1CCC[C@H]1c1ncc(-c2ccc3c(=O)c4cc(-c5cnc([C@@H]6CSCN6C(=O)[C@@H](NC(=O)OC)C(C)C)[nH]5)ccc4oc3c2)[nH]1)C(C)C [Compound 122] | < 1 |
| CC[C@H](C)[C@H](NC(=O)OC)C(=O)N1CCC[C@H]1c1ncc(-c2ccc3c(=O)c4cc(-c5cnc([C@@H]6CSCN6C(=O)[C@@H](NC(=O)OC)[C@@H](C)CC)[nH]5)ccc4oc3c2)[nH]1 [Compound 123] | < 1 |
| COC(=O)N[C@H](C(=O)N1CCC[C@H]1c1ncc(-c2ccc3c(c2)Oc2ccc(-c4cnc([C@@H]5CSCN5C(=O)[C@@H](NC(=O)OC)C(C)C)[nH]4)cc2C3)[nH]1)C(C)C [Compound 124] | < 1 |
| CC[C@H](C)[C@H](NC(=O)OC)C(=O)N1CCC[C@H]1c1ncc(-c2ccc3c(c2)Oc2ccc(-c4cnc([C@@H]5CSCN5C(=O)[C@@H](NC(=O)OC)[C@@H](C)CC)[nH]4)cc2C3)[nH]1 [Compound 125] | < 1 |
| COC(=O)N[C@H](C(=O)N1CCC[C@H]1c1ncc(-c2ccc3oc4cc(-c5cnc([C@@H]6CCCN6C(=O)[C@@H](NC(=O)OC)C(C)C)[nH]5)c(C)cc4c(=O)c3c2)[nH]1)C(C)C [Compound 126] | < 1 |
| COC(=O)N[C@@H](C(=O)N1CCC[C@H]1c1ncc(-c2ccc3oc4cc(-c5cnc([C@@H]6CCCN6C(=O)[C@H](NC(=O)OC)c6ccccc6)[nH]5)c(C)cc4c(=O)c3c2)[nH]1)c1ccccc1 [Compound 127] | < 1 |

| SMILES | EC50 [nM] |
| --- | --- |
| COC(=O)N[C@H](C(=O)N1CSC[C@H]1c1ncc(-c2ccc3c(=O)c4cc(-c5cnc([C@@H]6CSCN6C(=O)[C@@H](NC(=O)OC)C(C)C)[nH]5)ccc4oc3c2)[nH]1)C(C)C [Compound 128] | < 1 |
| COC(=O)N[C@@H](C(=O)N1CSC[C@H]1c1ncc(-c2ccc3c(=O)c4cc(-c5cnc([C@@H]6CSCN6C(=O)[C@H](NC(=O)OC)c6ccccc6)[nH]5)ccc4oc3c2)[nH]1)c1ccccc1 [Compound 129] | < 1 |
| CC[C@H](C)[C@H](NC(=O)OC)C(=O)N1CCC[C@H]1c1ncc(-c2ccc3c(=O)c4cc(-c5cnc([C@@H]6COCCN6C(=O)[C@@H](NC(=O)OC)[C@@H](C)CC)[nH]5)ccc4oc3c2)[nH]1 [Compound 130] | < 1 |
| COC(=O)N[C@H](C(=O)N1CCC[C@H]1c1ncc(-c2ccc3c(=O)c4cc(-c5cnc([C@@H]6COCCN6C(=O)[C@@H](NC(=O)OC)[C@@H](C)OC)[nH]5)ccc4oc3c2)[nH]1)[C@@H](C)OC [Compound 131] | < 1 |
| CC[C@H](C)[C@H](NC(=O)OC)C(=O)N1CCCC[C@H]1c1ncc(-c2ccc3oc4cc(-c5cnc([C@@H]6CCCN6C(=O)[C@@H](NC(=O)OC)[C@@H](C)CC)[nH]5)ccc4c(=O)c3c2)[nH]1 [Compound 132] | < 1 |
| COC(=O)N[C@H](C(=O)N1CCC[C@H]1c1ncc(-c2ccc3c(c2)C(C)(C)c2ccc(-c4ccc5nc([C@@H]6CCCN6C(=O)[C@@H](NC(=O)OC)C(C)C)[nH]c5c4)cc2O3)[nH]1)C(C)C [Compound 133] | < 1 |
| COC(=O)N[C@@H](C(=O)N1CCC[C@H]1c1ncc(-c2ccc3c(c2)C(C)(C)c2ccc(-c4ccc5nc([C@@H]6CCCN6C(=O)[C@H](NC(=O)OC)c6ccccc6)[nH]c5c4)cc2O3)[nH]1)c1ccccc1 [Compound 134] | < 1 |
| COC(=O)N[C@H](C(=O)N1CCC[C@H]1c1nc2ccc(-c3ccc4c(=O)c5cc(-c6cnc([C@@H]7CCCN7C(=O)[C@@H](NC(=O)OC)[C@@H](C)OC)[nH]6)ccc5oc4c3)cc2[nH]1)C(C)C [Compound 135] | < 1 |
| CC[C@H](C)[C@H](NC(=O)OC)C(=O)N1CCC[C@H]1c1ncc(-c2ccc3oc4cc(-c5ccc6nc([C@@H]7CCCN7C(=O)[C@@H](NC(=O)OC)C(C)C)[nH]c6c5)ccc4c(=O)c3c2)[nH]1 [Compound 136] | < 1 |
| COC(=O)N[C@H](C(=O)N1CCC[C@H]1c1nc2ccc(-c3ccc4c(=O)c5cc(-c6cnc([C@@H]7CCCN7C(=O)[C@H](NC(=O)OC)c7ccccc7)[nH]6)ccc5oc4c3)cc2[nH]1)C(C)C [Compound 137] | < 1 |
| CC[C@H](C)[C@H](NC(=O)OC)C(=O)N1CCC[C@H]1c1ncc(-c2ccc3c(=O)c4cc(-c5cnc([C@@H]6CCCN6C(=O)[C@@H](NC(=O)OC)[C@@H](C)CC)[nH]5)ccc4oc3c2)[nH]1 [Compound 138] | < 1 |
| COC(=O)N[C@H](C(=O)N1CCC[C@H]1c1ncc(-c2ccc3c(=O)c4cc(-c5cnc([C@@H]6CCCN6C(=O)[C@@H](NC(=O)OC)C6CCCC6)[nH]5)ccc4oc3c2)[nH]1)C1CCCC1 [Compound 139] | < 1 |
| COC(=O)N[C@H](C(=O)N1CCCC[C@H]1c1ncc(-c2ccc3oc4cc(-c5cnc([C@@H]6CCCN6C(=O)[C@@H](NC(=O)OC)[C@@H](C)OC)[nH]5)ccc4c(=O)c3c2)[nH]1)[C@@H](C)OC [Compound 140] | < 1 |
| COC(=O)N[C@H](C(=O)N1CCCC[C@H]1c1ncc(-c2ccc3oc4cc(-c5cnc([C@@H]6CCCN6C(=O)[C@@H](NC(=O)OC)C(C)C)[nH]5)ccc4c(=O)c3c2)[nH]1)C(C)C [Compound 141] | < 1 |
| COC(=O)N[C@H](C(=O)N1CCC[C@H]1c1ncc(-c2ccc3c(=O)c4cc(-c5cnc([C@@H]6COCCN6C(=O)[C@@H](NC(=O)OC)C(C)C)[nH]5)ccc4oc3c2)[nH]1)C(C)C [Compound 142] | < 1 |
| CC[C@H](C)[C@H](NC(=O)OC)C(=O)N1CCC[C@H]1c1ncc(-c2ccc3c(c2)Oc2ccc(-c4cnc([C@@H]5COCCN5C(=O)[C@@H](NC(=O)OC)[C@@H](C)CC)[nH]4)cc2C3)[nH]1 [Compound 143] | < 1 |
| COC(=O)N[C@H](C(=O)N1CCC[C@H]1c1ncc(-c2ccc3c(c2)Oc2ccc(-c4cnc([C@@H]5COCCN5C(=O)[C@@H](NC(=O)OC)C(C)C)[nH]4)cc2C3)[nH]1)C(C)C [Compound 144] | < 1 |
| CC[C@H](C)[C@H](NC(=O)OC)C(=O)N1CCC[C@H]1c1ncc(-c2ccc3oc4cc(-c5ccc6nc([C@@H]7CCCN7C(=O)[C@@H](NC(=O)OC)[C@@H](C)OC)[nH]c6c5)ccc4c(=O)c3c2)[nH]1 [Compound 145] | < 1 |
| COC(=O)N[C@H](C(=O)N1CCC[C@H]1c1ncc(-c2ccc3c(c2)C(C)(C)c2ccc(-c4ccc5nc([C@@H]6CCCN6C(=O)[C@@H](NC(=O)OC)[C@@H](C)OC)[nH]c5c4)cc2O3)[nH]1)[C@@H](C)OC [Compound 146] | < 1 |
